Source: patent US20190125701A1 (priority 2016, published 2019)
Entries after “also recorded” stand apart in the source; their conditions may differ.

Tests used:
[1] = test system: mCMV; test: Plaque size assay; details: varying drug concentrations, measured 5 dpi
[2] = test system: mCMV; format: in vivo, mouse; details: for parameters of somatic development: body and tail length, eyelid opening, fur maturation; for CMV load in liver and lungs: treated PND 1 to 10, plaque assay at PND 12
[3] = test system: mCMV; test: Vertical pole test; format: in vivo, mouse; details: P28-P30; 3 out of 20 infected untreated failed
Description: Briefly, mice were individually placed head-downward at the top of a vertical rough-surfaced pole (diameter, 8 mm; height, 55 cm) and allowed to descend in a round of habituation. Then, mice were placed head-upward at the top of the pole. The time required for the animal to descend to the floor was recorded as the locomotor activity time (TLA), with a maximum duration of 120 seconds. If a mouse fell, was unable to turn downward or was unable to climb down, a default locomotor activity time value was recorded as 120 seconds. Each mouse was given three trials with a 30 second-recovery period between trials.

[4] = test system: mCMV; test: Challenging beam traversal test; format: in vivo, mouse; details: P28-P30
[5] = test system: mCMV; test: Three-chamber test of sociability and social novelty; format: in vivo, mouse; details: 5 weeks of age
Description: Sociability and preference for social novelty were investigated at 5 weeks of age in a three-compartment apparatus (Yang, et al., 2011, Curr. Protoc. Neurosci. Chapter 8:Unit 8.26). Initially, test and control animals were allowed to explore the apparatus freely for a 10-min period (habituation). For the social approach paradigm, an unfamiliar conspecific (same sex, similar age and weight) animal was placed into one of the side compartments and restrained by a small wire object (‘social cage’). The compartment on the other side contained an empty wire object (‘empty cage’). The test subject was then released into the center compartment and allowed to explore the three-compartment apparatus freely for 10 min. Behavior was videotaped and assessed for the time(s) that the test subject spent in the three compartments and in close proximity to the social and empty cages. For the social-novelty paradigm, another unfamiliar conspecific animal was placed in the previously empty wire object (‘novel cage’). The behavior of the test mouse was recorded for 10 min and assessed for the time spent exploring the known and novel conspecifics.

[6] = test system: mCMV; test: Exploratory activity in adapted small open field; format: in vivo, mouse; details: P30-40, 3-min session
[7] = test system: hCMV; test: hCMV virus yield reduction assay in human fetal astrocytes; format: cell-based, human CMV
Description: In the virus yield reduction assay, after viral adsorption, cells were washed twice with PBS and replenished with fresh medium containing the compounds to be tested. At 72 hpi medium was collected and titered by plaque assay using HDF monolayers to assess the drug-mediated inhibition of virus replication in human fetal brain astrocytes.

[8] = test system: mCMV; details: for antiviral activity after drug removal: 24 hrs pre-treatment, compounds removed before virus inoculation; for effect on mCMV infection: cells pre-treated with drug prior to mCMV inoculation; for CMV inhibition with delayed drug addition: compounds added 2 to 12 hours after virus inoculation; for number of infected cells: drug at low concentration (100 μM) present 0-48 hpi, NIH/3T3, MOI 0.1
[9] = test system: mCMV; details: P2 to P14
[10] = test system: Vesicular Stomatitis Virus; details: Ornaghi, et al., 2016; cited from earlier work
[11] = cited from earlier work
[12] = test system: mCMV; test: Hindlimb clasping test; details: P28-P30
[13] = test system: mCMV; test: Virucidal activity assay on free virions; details: 100 μM with undiluted mCMV for 2 hours at 4° C. or 37° C., then diluted to 10 nM
[14] = test system: hCMV; test: hCMV infectivity assay in human fetal astrocytes; details: 100 μM, 1 h pre-treatment, MOI 0.1, 48 hpi
[15] = test system: mCMV; test: Viral yield reduction assay after short drug exposure; details: 100 μM for 2 hrs at viral challenge, supernatants at 72 hpi
[16] = test system: mCMV; test: Viral binding and fusion experiments (4° C./37° C. shift); details: 100 μM, NIH/3T3, MOI 0.1, infectivity at 48 hpi
[17] = test system: hCMV; test: hCMV attachment and internalization in human fetal astrocytes by qPCR; details: 100 μM
[18] = test system: hCMV; test: Quantification of hCMV-GFP infection in normal human dermal fibroblasts and U-373 glioblastoma cells; details: pre-treatment prior to hCMV-GFP inoculation
[19] = test system: Vesicular Stomatitis Virus; format: cell-based, VSV
[20] = test system: Sindbis virus (SIN); format: cell-based
[21] = test system: CMV IE1/2 promoter; details: NIH/3T3, VPD 1 mM for 24 hours, plasmid transfection
Description: To investigate the effects on the immediate early phase of viral replication, NIH/3T3 cells exposed to VPD (1 mM) for 24 hours, were transfected with a CMV promoter (IE1/IE2)-driven reporter plasmid (pCMV-tdTomato) expressing the red fluorescent protein tdTomato.

[22] = test system: mCMV; test: Ethidium homodimer (EthD-1) cytotoxicity assay of mCMV-infected NIH/3T3 cells; details: NIH/3T3, 24 hrs pre-treatment, MOI 0.4, 72 hpi

Row | Compound | CMV plaque size [1] | parameters of somatic development [2] | CMV load in liver and lungs [2] | antiviral activity after drug removal [8] | effect on mCMV infection [8] | CMV inhibition with delayed drug addition [8] | number of infected cells [8] | virucidal activity on virions [13] | virus production [15] | CMV binding to cells [16] | effect on human CMV infection [18] | other results
1 | CCC(C)C(C(N)=O)C(C)C (stereo not shown) [SID, 2-isopropyl-3-methylpentanamide] | reduced | – | – | – | – | – | – | – | – | – | – | –
2 | CCCC(C(N)=O)C(C)CC (stereo not shown) [SPD, 3-methyl-2-propylpentanamide] | slightly more effective than either valpromide or valnoctamide; also recorded: reduced | – | – | – | – | – | – | – | – | – | – | –
3 | CCC(C)C(CC)C(N)=O (stereo not shown) [VCD, 2-ethyl-3-methylpentanamide] | reduced | markedly improved | markedly decreased | loss of antiviral activity | inhibited | no inhibition | 50% | No direct inactivation of virions | significantly decreases virus production | inhibit CMV binding to cells | inhibited | mice failing the vertical pole test [3]: no VCD-treated mice or uninfected controls failed; beam traversal time and number of slips [4]: significantly improved the coordination and balance; preference for social novelty [5]: restored social novelty responses; rearing and nose-poking events [6]: Normal levels of exploratory activity were restored; reduction in viral titer ([7]; 100 μM VCD versus vehicle): approximately 100 fold; viral titer ([7]; 100 μM VCD, MOI 0.1, vehicle 4.92×10^5±5.84×10^4): 6.31×10^3±3.06×10^3 PFU/ml; acquisition of neurological milestones in infected pups [9]: timely acquisition of neurological milestones; antiviral effect on vesicular stomatitis virus [10]: no antiviral effect; conversion to corresponding free acid (valnoctic acid) ([11]; in vivo): little conversion; hindlimb clasping response [12]: completely reversed this altered behavior; hCMV infectivity (GFP-positive cells) [14]: substantially decreased hCMV infectivity; decrease of virus bound to the cell surface versus control ([17]; 4° C.): 60%; CMV fusion/internalization ([17]; 37° C.): did not appear to block CMV fusion/internalization
4 | CCCC(CCC)C(N)=O [VPD, 2-propylpentanamide] | reduced | markedly improved | markedly decreased | loss of antiviral activity | robust dose-dependent inhibitory effect | no inhibition | 50% | No direct inactivation of virions | significantly decreases virus production | inhibit CMV binding to cells | inhibited human CMV infection | VSV infection compared to control [19]: 101%±5%; SIN infection compared to control [20]: 107%±3%; fraction metabolized to VPA ([11]; humans): > 80%; number of red (tdTomato) cells compared to control [21]: 96%±4%; viral-mediated cell death / cell survival [22]: increased cell survival
5 | ivermectin | – | – | – | – | – | – | – | – | – | – | – | CMV infection compared to control ([8]; ivermectin used at 1 μM, CMV type not stated): 99%±9%
